Measured values reported in patent publication US9422363B2, “Synthetic apolipoprotein E mimicking polypeptides and methods of use” (UAB RESEARCH FOUNDATION, priority 2007, dated 2016).

Columns and labels:
WHHL rabbits [1] = test: Ac-hE18A-NH2 in WHHL rabbits: plasma PON, lipid hydroperoxides, cholesterol, endothelial function; type: in vivo, rabbit; details: plasma of WHHL rabbits; p<0.05; FIG. 1
Description: These rabbits have defective LDL receptors and therefore have increased atherogenic lipoproteins (mainly LDL). […] This was associated with improved aortic endothelial function. This improvement in endothelial function was mediated in part by increase in PON activity with associated decrease in plasma lipid hydroperoxide (FIG. 1). […] PON is an anti-oxidant enzyme associated with HDL and is responsible for scavenging LOOH in plasma. The lipid lowering effects of Ac-hE18A-NH2 in 1% cholesterol fed NZW-rabbits have also been shown. These animals have elevated cholesterol that are rich in VLDL type of particles.

ZDF (fa/fa) rats = test: Onset and progression of DM-2 in male ZDF (fa/fa) rats: fasting plasma glucose, insulin, adiponectin; type: in vivo, rat
Method: This example outlies studies carried out for the evaluation of the effects of these peptides in the prevention of onset and progression of DM-2. […] Baseline fasting plasma was collected prior to peptide administration. Biweekly injections (6 for Ac-hE18A-NH2 group and 5 for L-4F group were administered before day 18). From day 18-day 33, no additional peptide/vehicle injection were performed. […] (B) Corresponding insulin levels are depicted in the control and Ac-hE18A-NH2 group only. Control animals become relatively insulin resistant at day 18 as depicted by hyperinsulinemia and hyperglycemia. […] Data are expressed as Mean±SEM; *p<0.05.
Relatively infrequent injections (biweekly) of the peptides as compared to vehicle were able to improve glucose homeostasis in the ZDF rats. Form the studies it was determined that adiponectin levels in the peptide treated animals were much higher than in controls at day 33 (5.7±1 vs. […], p<0.05). […] Adiponectin also prevents the production and action of pro-inflammatory TNF-α and IL-6 and induces anti-inflammatory cytokine IL-10 and IL-1 receptor antagonist. A summary of the potential effects of the peptides on liver, pancreas, peripheral tissue, blood and blood vessel are depicted in FIG. 5.

WHHL rabbits [2] = details: single administration; cited from earlier work
[3] = tested on: 1% cholesterol fed NZW-rabbits; test: Plasma cholesterol in high fat (1% cholesterol) diet rabbits; type: in vivo, rabbit; details: intravenously two times; end of 14 days (21 days after initiation of atherogenic diet); n=4; control about 2000 mg/dl
[4] = tested on: 1% cholesterol fed NZW-rabbits; test: Plasma turbidity and aortic atherosclerosis (en face Oil Red O) in 1% cholesterol fed NZW rabbits; type: in vivo, rabbit
Method: In another set of experiments it was noted that Ac-hE18A-NH2 clears the plasma turbidity in 1% cholesterol fed NZW-rabbits. 3 mg/kg of peptide was administered intravenously/week. The rabbits were sacrificed after 51 days from the start of diet. Aortas were harvested and en face analysis was done on Oil Red O stained tissue samples. […] This was associated with decrease in atherogenic lipoproteins and inhibition of atherosclerosis at day 51.

[5] = 5 mg/kg i.v. biweekly, day 18, versus control
[6] = day 33, no additional peptide after day 18
[7] = 1% cholesterol fed NZW rabbits, 3 mg/kg i.v./week, day 51

With “Ac-LRKLRKRLLRDWLKAFYDKVAEKLKEAF-NH2 [Ac-hE18A-NH2]” the “HDL associated Paraoxonase (PON) activity” value (WHHL rabbits [1]) was “increase”, the “lipid hydroperoxides (LOOH)” value (WHHL rabbits [1]) was “decrease” and the fasting plasma glucose (ZDF (fa/fa) rats; 5 mg/kg i.v. biweekly until day 18, day 18 and day 33, versus control) was “only mild increase”. For the same substance, the plasma glucose levels (ZDF (fa/fa) rats; 5 mg/kg i.v. biweekly, day 18) was “normal”, the insulin resistance (ZDF (fa/fa) rats; [5]) was “much less” and the plasma insulin levels (ZDF (fa/fa) rats; [5]) was “lower”. The beta cell function (ZDF (fa/fa) rats; day 18 to day 33, no additional peptide) was “relatively preserved”, the plasma glucose (ZDF (fa/fa) rats; [6]) was “milder increase” and the plasma insulin (ZDF (fa/fa) rats; [6]) was “increase”. For the same substance, the LDL cholesterol (WHHL rabbits [2]) was “dramatic decrease”, the aortic endothelial function (WHHL rabbits [2]) was “improved” and the total cholesterol (WHHL rabbits [2]) was “dramatic decrease”. The plasma cholesterol levels [3] was about 1000 mg/dL, the atherogenic lipoproteins [4, 7] was “decrease” and the “atherosclerosis (en face analysis of Oil Red O stained aortas)” value [4, 7] was “inhibits”. For the same substance, the plasma turbidity ([4]; 1% cholesterol fed NZW-rabbits, 3 mg/kg intravenously/week) was “clears”.
